Results from patent US20240261294A1, “METHOD FOR TREATING IDH INHIBITOR-RESISTANT SUBJECTS” (Eli Lilly and Company, priority 2021, published 2024).
Numbering of substitutions follows the chain as printed. Read-outs that look alike come from different tables or passages of the source.

Key:
IDH2 R172K_Q316E cis = target: T1, IDH2 R172K_Q316E cis (Homo sapiens, UniProt P48735, Q316E/R172K); assay: Inhibition of 2-HG production in IDH2 mutant U-87 MG cells; type: cell-based; settings: 16 hours incubation, 50K cells/well, 100 μl media/well, read-out: Relative IC50 (nM) Mean, inhibition of 2-HG production
T1 construct: expressed in transfected cells; host or cells: U-87 MG
T1 sequence (P48735 40-452 R172K/Q316E): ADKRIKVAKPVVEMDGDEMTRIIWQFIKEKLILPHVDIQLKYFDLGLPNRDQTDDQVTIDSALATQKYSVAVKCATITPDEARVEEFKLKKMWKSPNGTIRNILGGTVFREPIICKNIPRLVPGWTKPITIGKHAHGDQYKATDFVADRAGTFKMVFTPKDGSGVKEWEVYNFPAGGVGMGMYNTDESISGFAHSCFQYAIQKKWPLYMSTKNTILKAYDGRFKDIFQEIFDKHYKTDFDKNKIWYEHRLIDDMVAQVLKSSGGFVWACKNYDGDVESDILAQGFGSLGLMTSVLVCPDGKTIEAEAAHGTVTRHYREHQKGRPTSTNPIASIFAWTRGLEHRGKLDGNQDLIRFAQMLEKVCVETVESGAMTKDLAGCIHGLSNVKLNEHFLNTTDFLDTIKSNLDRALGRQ

IDH2 R172W_P167R cis = target: T2, IDH2 R172W_P167R cis (Homo sapiens, UniProt P48735, P167R/R172W); assay: as above; type: cell-based; settings: read-out: Relative IC50 (nM) Mean, inhibition of 2-HG production
T2 construct: expressed in transfected cells; host or cells: U-87 MG
T2 sequence (P48735 40-452 P167R/R172W): T1 sequence (P48735 40-452 R172K/Q316E) with P128R, K133W, E277Q

- IC50 (IDH2 R172K_Q316E cis): 76 nM
- IC50 (IDH2 R172W_P167R cis; 16 hours incubation, 50K cells/well, 100 μl media/well): 1280 nM
- IC50 (IDH2 R172W_P167R cis; 72 hours incubation, 12.5K cells/well): 535 nM
SMILES: C=CC(=O)N1CCN([C@@H](CC2CC2)c2ccc([C@H](C)Nc3ncc4c(n3)N(CC)C(=O)OC4)cc2)CC1 [Compound A, 7-[[(1S)-1-[4-[(1S)-2-cyclopropyl-1-(4-prop-2-enoylpiperazin-1-yl)ethyl]phenyl]ethyl]amino]-1-ethyl-4H-pyrimido[4,5-d][1,3]oxazin-2-one]
